Columns and labels:
[1] = target: T1, chitin synthase 2 of Saccharomyces cerevisiae ECY38-38A(pAS6) (Saccharomyces cerevisiae, UniProt P14180); test: In vitro enzyme assay for chitin synthase 2 of Saccharomyces cerevisiae (enzyme 2); format: biochemical; details: relative to polyoxin D (50% inhibitory activity = value 5)
T1 construct: made in house; host or cells: Saccharomyces cerevisiae ECY38-38A (chs1-23 chs2::LEU2 cal1/csd2) carrying plasmid pAS6, grown in galactose medium; 130,000 x g membrane pellet
T1 sequence (P14180 whole entry): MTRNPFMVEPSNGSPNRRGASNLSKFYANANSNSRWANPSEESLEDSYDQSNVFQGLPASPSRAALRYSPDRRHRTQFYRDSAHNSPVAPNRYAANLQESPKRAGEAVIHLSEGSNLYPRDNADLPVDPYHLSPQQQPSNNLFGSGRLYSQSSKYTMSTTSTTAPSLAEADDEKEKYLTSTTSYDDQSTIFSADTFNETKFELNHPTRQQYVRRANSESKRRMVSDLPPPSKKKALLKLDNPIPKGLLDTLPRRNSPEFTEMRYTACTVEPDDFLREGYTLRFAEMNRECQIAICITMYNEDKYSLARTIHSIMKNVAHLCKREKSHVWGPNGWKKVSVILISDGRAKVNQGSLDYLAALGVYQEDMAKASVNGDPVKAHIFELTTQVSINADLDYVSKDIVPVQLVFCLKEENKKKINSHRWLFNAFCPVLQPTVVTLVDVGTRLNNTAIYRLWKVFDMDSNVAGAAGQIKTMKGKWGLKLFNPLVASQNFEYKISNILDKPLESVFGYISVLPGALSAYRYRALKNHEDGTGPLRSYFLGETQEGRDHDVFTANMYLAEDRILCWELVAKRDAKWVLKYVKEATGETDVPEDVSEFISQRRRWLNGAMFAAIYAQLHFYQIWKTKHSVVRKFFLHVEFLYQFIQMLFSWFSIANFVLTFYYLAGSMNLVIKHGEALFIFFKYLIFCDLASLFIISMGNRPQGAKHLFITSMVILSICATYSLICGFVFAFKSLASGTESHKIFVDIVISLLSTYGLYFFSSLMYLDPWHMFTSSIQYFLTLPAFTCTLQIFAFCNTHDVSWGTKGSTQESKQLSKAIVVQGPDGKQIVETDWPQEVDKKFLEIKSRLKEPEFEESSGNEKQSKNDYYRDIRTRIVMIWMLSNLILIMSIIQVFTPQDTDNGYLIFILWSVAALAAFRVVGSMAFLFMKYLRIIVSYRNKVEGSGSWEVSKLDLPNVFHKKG
Method: Crude enzyme was prepared using the recombinant Saccharomyces cerevisiae ECY38-38A(pAS6) (MATa chs1-23 chs2::LEU2 cal 1/csd 2 ura 3-52 trp 1-1 leu 2-2 pAS6) strain, which can produce the chitin synthase 2 only. The strain was inoculated with the YPG culture medium (1% yeast extract, 2% peptone, 2% galactose) and cultured at 30° C. overnight. Then, it was inoculated with a fresh YPG culture medium and cultured for 15-17 hours until the Absorbance at 550 nm reaches 1.0. The cells were collected and suspended in 50 mM Tris-HCl (pH 7.5) buffer containing 5 mM magnesium acetate. After centrifugation at 8,000×g for 10 minutes, the pellets were suspended in the same Tris-HCl buffer solution. The suspension was divided into aliquots in 50 mL conical test tubes. After adding the glass beads, the cells were disrupted by vigorously vortexing with an interval of 30 seconds. The cell residues were removed by centrifuging at 3,000×g for 5 minutes. The supernatant was ultra-centrifuged at 130,000×g for 1 hour. The resultant pellets were collected and suspended in 50 mM Tris-HCl (pH 7.5) containing 33% glycerol, to a final volume of 1.6 mg/g (wet weight) of yeast used. The suspension was divided into aliquots and kept at −70° C. until it is used.
(§1) The inhibitory activities against the chitin synthase 1 of Candida albicans chs2 Δ chs 3 Δ (abbreviated as ‘enzyme 1’) and the chitin synthase 2 of Saccharomyces cerevisiae ECY38-38A(pAS6)(abbreviated as ‘enzyme 2’) was examined for compound Nos. 1 to 70 compound and polyoxin D, a positive control compound.
(§2) The inhibitory activity against the chitin synthase 1 prepared from Candida albicans and the chitin synthase 2 prepared from Saccharomyces cerevisiae were examined as follows. A reaction mixture containing 32 mM Tris-HCl (pH 7.5), 2 mM cobalt acetate, 1.1 mM UDP-[U-^14C]-N-acetyl-d-glucosamine (GlcNAc) (400,000 cpm/μmol), 2 μL of trypsin (0.75 mg/mL), 20 μL of each crude enzyme and 14 μL of each test sample was kept at 30° C. for 15 minutes to activate the enzyme. Then, 2 μL of trypsin inhibitor (1.5 mg/mL) was added and the mixture was kept in an ice bath for 10 minutes to deactivate trypsin. 2 μL of 0.8 M N-acetyl-d-glucosamine was added to a total volume of 50 μL and reaction was performed at 30° C. for 90 minutes. The reaction was stopped using 1 mL of 10% TCA solution and the reaction solution was filtered with a GF/C filter and dried at room temperature. After adding 3 mL of a scintillation cocktail solution, the amount of isotopes was measured using a liquid scintillation counter. Percentage inhibition against each enzyme was calculated by the following Equation 1.
(§3) The control group was not added with a test sample in the reaction mixture and that of the untreated group contained neither the test sample nor the crude enzyme.
(§4) A 50% inhibitory activity of polyoxin D against the enzyme was given the value 5. A compound having the same inhibitory activity as that of polyoxin D at the same concentration was given the value 5. Compounds having the inhibitory activity at 2-fold, 4-fold, 8-fold and 16-fold higher concentrations than that of polyoxin D were given the values of 4, 3, 2 and 1, respectively. On the other hand, compounds having the inhibitory activity at ½, ¼ and ⅛ lower concentrations than that of polyoxin D were given the values of 6, 7 and 8, respectively.

[2] = target: T2, chitin synthase 1 of Candida albicans chs2 Δ chs 3 Δ (Candida albicans, UniProt P23316); test: In vitro enzyme assay for chitin synthase 1 of Candida albicans (enzyme 1); format: biochemical; details: relative to polyoxin D (50% inhibitory activity = value 5)
T2 construct: Crude enzyme was prepared using the Candida albicans chs2 Δ chs 3 Δ mutant; endogenous in cells; host or cells: Candida albicans chs2Δ/chs2Δ chs3Δ/chs3Δ mutant; 130,000 x g membrane pellet
T2 sequence (P23316 whole entry, stated change not applied): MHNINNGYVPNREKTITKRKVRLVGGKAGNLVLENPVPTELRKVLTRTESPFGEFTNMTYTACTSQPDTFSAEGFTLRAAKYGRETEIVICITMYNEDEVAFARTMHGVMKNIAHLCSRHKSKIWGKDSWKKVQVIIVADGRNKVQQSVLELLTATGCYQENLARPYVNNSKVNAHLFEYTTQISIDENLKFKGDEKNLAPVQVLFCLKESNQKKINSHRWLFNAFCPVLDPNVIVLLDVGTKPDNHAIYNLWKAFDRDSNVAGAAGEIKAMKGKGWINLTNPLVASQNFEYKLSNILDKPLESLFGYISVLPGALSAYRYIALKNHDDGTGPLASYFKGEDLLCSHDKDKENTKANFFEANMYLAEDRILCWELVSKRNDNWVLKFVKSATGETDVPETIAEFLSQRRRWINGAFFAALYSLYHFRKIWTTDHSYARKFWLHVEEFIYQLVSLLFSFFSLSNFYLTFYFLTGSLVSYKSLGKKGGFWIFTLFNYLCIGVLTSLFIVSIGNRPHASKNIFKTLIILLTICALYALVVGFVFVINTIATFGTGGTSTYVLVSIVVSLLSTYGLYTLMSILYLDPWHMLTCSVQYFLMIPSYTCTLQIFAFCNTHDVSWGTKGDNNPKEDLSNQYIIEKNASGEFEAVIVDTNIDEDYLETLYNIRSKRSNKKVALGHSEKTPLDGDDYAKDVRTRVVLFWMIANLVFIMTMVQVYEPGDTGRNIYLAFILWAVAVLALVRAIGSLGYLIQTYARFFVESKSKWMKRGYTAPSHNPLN
Method: Crude enzyme was prepared using the Candida albicans chs2 Δ chs 3 Δ mutant (chs2 Δ::hisG/chs2 Δ::hisG chs3 Δ::hisG/chs3 Δ::hisG) strain, which can only produce the chitin synthase 1. The strain was inoculated with the SDA (Sabouraud dextrose agar) culture medium (4% dextrose, 1% peptone, pH 5.6) and cultured at 30° C. for 15-17 hours until the absorbance at 550nm reaches 0.7. The cells were collected and suspended in a 50 mM Tris-HCl (pH 7.5) buffer solution containing 5 mM magnesium acetate. After centrifugation at 8,000×g for 10 minutes, the pellets were suspended in the same Tris-HCl buffer solution. The suspension was divided into aliquots in 50 mL conical test tubes. After adding glass beads, the cells were disrupted by vigorously vortexing with an interval of 30 seconds. The cell residues were removed by centrifuging at 3,000×g for 5 minutes. The supernatant was ultra-centrifuged at 130,000×g for 1 hour. The resultant pellets were collected and suspended in 50 mM Tris-HCl (pH 7.5) containing 33% glycerol, to a final volume of 1.6 mg/g (wet weight) of yeast used. The suspension was divided into aliquots and kept at −70° C. until it is used.
as §1, §2, §3, §4

Compound	Relative activity Enzyme 2 [1]	Relative activity Enzyme 1 [2]
COc1ccc2c(Cc3ccc(C(F)(F)F)cc3)c3[n+](cc2c1OC)CCc1cc2c(cc1-3)OCO2.[Cl-] [Comparative compound 2, reference compound]	2 (Compounds having the inhibitory activity at 2-fold, 4-fold, 8-fold and 16-fold higher concentrations than that of polyoxin D were given the values of 4, 3, 2 and 1, respectively)	<1 (Compounds having the inhibitory activity at 2-fold, 4-fold, 8-fold and 16-fold higher concentrations than that of polyoxin D were given the values of 4, 3, 2 and 1, respectively)
COc1ccc2c(Cc3ccc(C(F)(F)F)cc3)c3[n+](cc2c1OCc1ccc(C(C)(C)C)cc1)CCc1cc2c(cc1-3)OCO2.[Cl-] [Compound No. 70, 13-(4-Trifluoromethylbenzyl)-9-O-(4-tert-butylbenzyl)berberrubine chloride]	5 (A compound having the same inhibitory activity as that of polyoxin D at the same concentration was given the value 5)	2 (Compounds having the inhibitory activity at 2-fold, 4-fold, 8-fold and 16-fold higher concentrations than that of polyoxin D were given the values of 4, 3, 2 and 1, respectively)
13-(3,4,5-Trifluorobenzyl)-9-O-butylberberrubine iodide [Compound No. 27]	6 (compounds having the inhibitory activity at ½, ¼ and ⅛ lower concentrations than that of polyoxin D were given the values of 6, 7 and 8, respectively)	3 (Compounds having the inhibitory activity at 2-fold, 4-fold, 8-fold and 16-fold higher concentrations than that of polyoxin D were given the values of 4, 3, 2 and 1, respectively)
COc1ccc2c(Cc3cc(F)c(F)c(F)c3)c3[n+](cc2c1OCc1ccc(C(C)(C)C)cc1)CCc1cc2c(cc1-3)OCO2.[Cl-] [Compound No. 61, 13-(3,4,5-Trifluorobenzyl)-9-O-(4-tert-butylbenzyl)berberrubine chloride]	4 (Compounds having the inhibitory activity at 2-fold, 4-fold, 8-fold and 16-fold higher concentrations than that of polyoxin D were given the values of 4, 3, 2 and 1, respectively)	2 (Compounds having the inhibitory activity at 2-fold, 4-fold, 8-fold and 16-fold higher concentrations than that of polyoxin D were given the values of 4, 3, 2 and 1, respectively)
COc1ccc2c(Cc3ccc(OC(F)(F)F)cc3)c3[n+](cc2c1OCc1ccc(C(C)(C)C)cc1)CCc1cc2c(cc1-3)OCO2.[Cl-] [Compound No. 67, 13-(4-Trifluoromethoxybenzyl)-9-O-(4-tert-butylbenzyl)berberrubine chloride]	5 (A compound having the same inhibitory activity as that of polyoxin D at the same concentration was given the value 5)	2 (Compounds having the inhibitory activity at 2-fold, 4-fold, 8-fold and 16-fold higher concentrations than that of polyoxin D were given the values of 4, 3, 2 and 1, respectively)
13-(4-Trifluoromethylbenzyl)-9-O-hexylberberrubine chloride [Compound No. 69]	5 (A compound having the same inhibitory activity as that of polyoxin D at the same concentration was given the value 5)	3 (Compounds having the inhibitory activity at 2-fold, 4-fold, 8-fold and 16-fold higher concentrations than that of polyoxin D were given the values of 4, 3, 2 and 1, respectively)
COc1cc(Cc2c3[n+](cc4c(OCc5ccc(C(C)(C)C)cc5)c(OC)ccc24)CCc2cc4c(cc2-3)OCO4)cc(OC)c1OC.[Br-] [Compound No. 32, 13-(3,4,5-Trimethoxybenzyl)-9-O-(4-tert-butylbenzyl)berberrubine bromide]	4 (Compounds having the inhibitory activity at 2-fold, 4-fold, 8-fold and 16-fold higher concentrations than that of polyoxin D were given the values of 4, 3, 2 and 1, respectively)	2 (Compounds having the inhibitory activity at 2-fold, 4-fold, 8-fold and 16-fold higher concentrations than that of polyoxin D were given the values of 4, 3, 2 and 1, respectively)
